The results in this text go back to patent US8895571B2, “Isoindolinone and pyrrolopyridinone derivatives as Akt inhibitors” (Incyte Corporation, priority 2011, dated 2014).

In one assay the target is T1, Full length Akt1 (Homo sapiens, UniProt P31749).
T1 construct: Full length Akt1 (cat #P2999); purchased PerkinElmer P2999
The experiment in a line: In vitro Akt kinase enzymatic assay (HTRF), Akt1. In kind it is biochemical. Particulars: 0.4 nM Akt1, substrate solution with 5 mM ATP, 25° C. 1 hr. In short, it runs like this: (§1)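 Full-length enzyme (0.4 nM Akt1 or 0.6 nM Akt2/Akt3 in the enzyme solution) was combined with a substrate solution of 0.1 μM ULight-Crosstide plus 5 mM ATP in pH 7.8 HEPES/MgCl2/DTT/Tween20 buffer and reacted 1 hr at 25° C. The EDTA stop contained Eu anti-phospho-Crosstide; IC50 was fitted from 11-point HTRF inhibition curves.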
In general terms: TR-FRET usually uses a lanthanide donor and a delayed reading to cut background.

In the next assay the target is T2, Full length Akt2 (Homo sapiens, UniProt P31751).
T2 construct: Full length Akt1 (cat #P2999), Akt2 (cat #PV3184); purchased PerkinElmer PV3184
The experiment in a line: In vitro Akt kinase enzymatic assay (HTRF), Akt2. It counts as biochemical. Particulars: 0.6 nM Akt2, substrate solution with 5 mM ATP, 25° C. 1 hr. In a few lines: as §1

In the next assay the target is T3, Full length Akt3 (Homo sapiens, UniProt Q9Y243).
T3 construct: Full length Akt1 (cat #P2999), Akt2 (cat #PV3184), Akt3 (cat #PV3185); purchased PerkinElmer PV3185
The experiment in a line: In vitro Akt kinase enzymatic assay (HTRF), Akt3. In kind it is biochemical. Particulars: 0.6 nM Akt3, substrate solution with 5 mM ATP, 25° C. 1 hr. In short, it runs like this:
as §1

In the next assay the target is T4, Full length PKA (Homo sapiens, UniProt P17612).
T4 construct: Full length PKA (cat #P2912); purchased Invitrogen P2912
In words: PKA in vitro enzymatic assay (HTRF). In kind it is biochemical. The note with it: 0.035 nM enzyme solution, substrate solution with 5 mM ATP, 25° C. 1 hr. In a few lines: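 Reaction buffer was 50 mM HEPES pH 7.8, 10 mM MgCl2, 5 mM DTT and 0.005% Tween20. Enzyme solution was 0.035 nM, and substrate solution was 0.1 μM fluorescein-CREBtide with 5 mM ATP. After 1 h at 25°C, EDTA plus Tb anti-pS133 antibody was added, TR-FRET was read, and IC50 was fitted from 11-point, 3-fold % inhibition curves.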

Assay [1] relates to LNCaP cells (human prostate tumor cell line). The experiment in a line: Akt LNCaP proliferation assay (MTS). The note with it: 2% fetal bovine serum, 48 hours, class symbols. In kind it is cell-based. The protocol:
LNCaP cells (human prostate tumor cell line) were plated in 96 well plates (COSTAR, Corning, N.Y.) in 50 μL at 10,000 cells/well in RPMI (Media Tech, Manassas, Va.), 2% fetal bovine serum (Hyclone/Thermo, Logan, Utah) and incubated overnight at 37° C., 5% CO2. […] of compound solution were added at final concentrations of 1000 nM to 0.5 nM in 3 fold dilutions for IC50 determination and plates further incubated for 48 hours. 100 μL of Cell Titer 96® Aqueous reagent, from an MTS colorimetric method for determining the number of viable cells in proliferation (Cell titer 96, Promega, Madison, Wis.) was added for 2 hours at 37° C., 5% CO2. Each plate was mixed well and read on a SpectroMax M5 automated plate reader (Molecular Devices, Sunnyvale Calif.). The ability of the compound to inhibit proliferation was reported as the inhibitor concentration required for 50% inhibition (IC50 values) of total cell proliferation. See Table 8 for data related to compounds of the examples.

The term IC50 denotes the concentration that inhibits the measured activity by half.

Structures are written as SMILES.

T3 sequence (Q9Y243 whole entry): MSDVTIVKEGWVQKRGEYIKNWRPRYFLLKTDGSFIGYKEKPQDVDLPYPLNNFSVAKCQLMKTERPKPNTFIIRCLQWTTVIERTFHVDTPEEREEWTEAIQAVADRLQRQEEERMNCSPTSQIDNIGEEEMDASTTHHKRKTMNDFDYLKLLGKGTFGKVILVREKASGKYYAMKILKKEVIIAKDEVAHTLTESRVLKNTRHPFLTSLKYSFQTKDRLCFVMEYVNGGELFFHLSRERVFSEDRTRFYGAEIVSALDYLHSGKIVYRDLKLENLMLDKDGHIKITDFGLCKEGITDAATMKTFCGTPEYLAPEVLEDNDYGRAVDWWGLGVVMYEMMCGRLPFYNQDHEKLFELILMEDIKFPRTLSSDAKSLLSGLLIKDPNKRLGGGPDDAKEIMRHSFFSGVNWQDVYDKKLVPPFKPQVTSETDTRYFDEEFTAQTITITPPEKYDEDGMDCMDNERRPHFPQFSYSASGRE
T2 sequence (P31751 whole entry): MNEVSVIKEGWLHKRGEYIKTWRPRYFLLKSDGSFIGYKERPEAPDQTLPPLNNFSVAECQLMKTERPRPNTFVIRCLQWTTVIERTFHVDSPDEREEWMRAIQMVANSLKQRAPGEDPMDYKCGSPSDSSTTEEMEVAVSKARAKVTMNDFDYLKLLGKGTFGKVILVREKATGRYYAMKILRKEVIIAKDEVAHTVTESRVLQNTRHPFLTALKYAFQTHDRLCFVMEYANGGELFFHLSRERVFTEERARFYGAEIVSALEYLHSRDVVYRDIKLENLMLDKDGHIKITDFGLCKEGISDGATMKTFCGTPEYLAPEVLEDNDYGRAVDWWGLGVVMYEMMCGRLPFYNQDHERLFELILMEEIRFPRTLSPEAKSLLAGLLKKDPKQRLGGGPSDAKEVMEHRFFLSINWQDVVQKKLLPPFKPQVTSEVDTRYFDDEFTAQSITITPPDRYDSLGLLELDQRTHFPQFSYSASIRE
T1 sequence (P31749 whole entry): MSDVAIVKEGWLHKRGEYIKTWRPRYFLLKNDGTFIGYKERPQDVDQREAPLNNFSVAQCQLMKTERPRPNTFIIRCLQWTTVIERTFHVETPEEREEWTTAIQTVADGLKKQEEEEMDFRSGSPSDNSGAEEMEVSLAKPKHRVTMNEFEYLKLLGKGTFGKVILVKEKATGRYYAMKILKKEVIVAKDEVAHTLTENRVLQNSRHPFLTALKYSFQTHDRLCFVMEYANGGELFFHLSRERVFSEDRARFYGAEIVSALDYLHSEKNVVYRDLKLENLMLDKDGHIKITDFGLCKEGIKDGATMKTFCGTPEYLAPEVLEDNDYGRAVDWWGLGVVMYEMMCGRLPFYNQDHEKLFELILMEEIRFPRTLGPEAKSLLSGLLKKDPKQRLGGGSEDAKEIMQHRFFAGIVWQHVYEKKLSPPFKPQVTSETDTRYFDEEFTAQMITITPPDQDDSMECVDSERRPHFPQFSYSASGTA

Turning to `CCn1nccc1-c1ccc2c(c1)CN([C@H](CN)Cc1cccc(F)c1)C2=O` [Example 127, 2-[(1S)-2-amino-1-(3-fluorobenzyl)ethyl]-5-(1-ethyl-1H-pyrazol-5-yl)isoindolin-1-one], the IC50 against Full length Akt1 was below 500 nM; against Full length Akt2 it was below 500 nM; at Full length Akt3 it was below 500 nM; against Full length PKA, above 5000 nM; in assay [1] it was below 500 nM.
Take `Cn1ncc(Cl)c1-c1cnc2c(c1)CN([C@H](CN)Cc1cccc(F)c1)C2=O` [Example 90, 6-[(1S)-2-amino-1-(3-fluorobenzyl)ethyl]-3-(4-chloro-1-methyl-1H-pyrazol-5-yl)-5,6-dihydro-7H-pyrrolo[3,4-b]pyridin-7-one]: the IC50 against Full length Akt1 was below 500 nM; against Full length Akt2, below 500 nM; on Full length Akt3, below 500 nM; against Full length PKA, above 5000 nM; in assay [1], below 500 nM.
In the case of `Cn1ncc(Cl)c1-c1cc2c(cn1)C(=O)N([C@H](CN)Cc1cc(F)cc(F)c1)C2` [Example 101, 2-[(1S)-2-amino-1-(3,5-difluorobenzyl)ethyl]-6-(4-chloro-1-methyl-1H-pyrazol-5-yl)-1,2-dihydro-3H-pyrrolo[3,4-c]pyridin-3-one], the IC50 on Full length Akt1 is below 500 nM; against Full length Akt2, below 500 nM; at Full length Akt3, below 500 nM; at Full length PKA, 500 to 5000 nM; in assay [1], below 500 nM.
For `Cn1nccc1-c1cc2c(cn1)C(=O)N([C@H](CN)CC1CCCCC1)C2` [Example 134, 2-[(1S)-2-amino-1-(cyclohexylmethyl)ethyl]-6-(1-methyl-1H-pyrazol-5-yl)-1,2-dihydro-3H-pyrrolo[3,4-c]pyridin-3-one], the IC50 (against Full length Akt1; at Full length Akt2; against Full length Akt3; at Full length PKA; in assay [1]) was below 500 nM throughout.
`Cn1ncc(F)c1-c1ccc2c(c1)CN([C@H](CN)Cc1cc(F)cc(F)c1)C2=O` [Example 51, 2-[(1S)-2-amino-1-(3,5-difluorobenzyl)ethyl]-5-(4-fluoro-1-methyl-1H-pyrazol-5-yl)isoindolin-1-one]: the IC50 (against Full length Akt1; on Full length Akt2; at Full length Akt3; on Full length PKA; in assay [1]) was below 500 nM throughout.
As for `Cn1ncc(Cl)c1-c1ccc2c(c1)CN([C@H](CNC1CCCC1)Cc1cccc(F)c1)C2=O` [Example 35, 5-(4-chloro-1-methyl-1H-pyrazol-5-yl)-2-[(1S)-2-(cyclopentylamino)-1-(3-fluorobenzyl)ethyl]isoindolin-1-one], the IC50 on Full length Akt1 is below 500 nM; against Full length Akt2 it was 500 to 5000 nM; against Full length Akt3 it was 500 to 5000 nM; against Full length PKA it was above 5000 nM.
`CCNC[C@H](Cc1cccc(F)c1)N1Cc2cc(-c3c(Cl)cnn3C)ccc2C1=O` [Example 31, 5-(4-chloro-1-methyl-1H-pyrazol-5-yl)-2-[(1S)-2-(ethylamino)-1-(3-fluorobenzyl)ethyl]isoindolin-1-one]: the IC50 on Full length Akt1 was below 500 nM; against Full length Akt2, 500 to 5000 nM; on Full length Akt3, 500 to 5000 nM; on Full length PKA it was above 5000 nM.
`Cn1ncc(Cl)c1-c1ccc2c(c1)CN(C(CN)c1ccc(F)cc1)C2=O` (centres unmarked) [Example 124, 2-[2-amino-1-(4-fluorophenyl)ethyl]-5-(4-chloro-1-methyl-1H-pyrazol-5-yl)isoindolin-1-one]: the IC50 was 500 to 5000 nM against Full length Akt1, 500 to 5000 nM at Full length Akt2, 500 to 5000 nM against Full length Akt3 and above 5000 nM against Full length PKA.
On to `CNC(=O)c1ccc(-c2cnn(C)c2-c2ccc3c(c2)CN([C@H](CN)Cc2cccc(F)c2)C3=O)cn1` [Example 29, 5-(5-{2-[(1S)-2-amino-1-(3-fluorobenzyl)ethyl]-1-oxo-2,3-dihydro-1H-isoindol-5-yl}-1-methyl-1H-pyrazol-4-yl)-N-methylpyridine-2-carboxamide], for which the IC50 against Full length Akt1 was 500 to 5000 nM; on Full length Akt2, above 5000 nM; on Full length Akt3, above 5000 nM; on Full length PKA, above 5000 nM.
